Paper PMC9954146, “Anti-Leukaemic Activity of Rilpivirine Is Mediated by Aurora A Kinase Inhibition” (Cancers, 2023)
Where two headings read alike, the source gives them in different places.

Key:
[1] = target: T1, ASK1(h) (Homo sapiens, UniProt Q99683); experiment: Kinase panel; type: biochemical; conditions: read-out: % Residual Activity
T1 construct: purchased Eurofins (KinaseProfiler)
Procedure, shortened: (§1)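 Cheng–Prusoff conversion of IC50 to Ki; IC50s from radioisotope-based assays at Km(ATP). Kinome-wide rilpivirine profiling.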

[2] = target: T2, CaMKIδ(h) (Homo sapiens, UniProt Q8IU85); experiment: Kinase panel; type: biochemical; conditions: read-out: % Residual Activity
T2 construct: purchased Eurofins (KinaseProfiler)
Procedure, shortened: as §1

[3] = target: T3, PKCε(h) (Homo sapiens, UniProt Q02156); experiment: Kinase panel; type: biochemical; conditions: read-out: % Residual Activity
T3 construct: purchased Eurofins (KinaseProfiler)
Procedure, shortened: as §1

[4] = target: T4, Tie2(Y897S)(h) (Homo sapiens, UniProt Q02763, Y897S); experiment: Kinase panel; type: biochemical; conditions: read-out: % Residual Activity
T4 construct: purchased Eurofins (KinaseProfiler)
Procedure, shortened: as §1

[5] = system: HL-60 cells; experiment: Resazurin cell viability assay; type: cell-based; conditions: Homo sapiens, read-out: GI50
Protocol: Cell viability was determined by a resazurin-based assay as described previously. […] At the end of the treatment period, 20 µL of resazurin (0.1 mg/mL in PBS) was added per well and incubated for further 4 h.

[6] = system: HL-60 cells; experiment: Apoptosis, annexin V/PI double staining; type: cell-based, human; conditions: 48 h
Protocol: (§2) The cellular apoptosis was detected using annexin-V/PI double staining by following a method described previously. Briefly, cells were added in 6-well plates containing 3 mL of medium each well at 8 × 10^4 cells/well and incubated at 37 °C, 5% CO2. After overnight incubation, the test compounds were added to the cells and again incubated for desired time points. Then, the cells were collected in FACS tubes, washed with PBS and incubated with annexin V and PI solution for 15 min in the dark at room temperature. The apoptotic cell death was measured within 1 h using the same instrument and data processing software described for cell cycle analysis.

[7] = system: K-562 cells; experiment: Apoptosis, annexin V/PI double staining; type: cell-based, human; conditions: 48 h
Protocol: as §2

[8] = system: MV4-11 cells; experiment: Apoptosis, annexin V/PI double staining; type: cell-based, human; conditions: 10 or 20 μM, 48 h; FLT3-ITD mutation
Protocol: as §2

[9] = system: NB4 cells; experiment: Apoptosis, annexin V/PI double staining; type: cell-based, human; conditions: 48 h
Protocol: as §2

[10] = system: U-937 cells; experiment: Apoptosis, annexin V/PI double staining; type: cell-based, human; conditions: 48 h
Protocol: as §2

[11] = system: Aurora A kinase signalling pathway proteins in HL-60 cells; experiment: Western blotting, HL-60 time course and combination; type: cell-based, human; conditions: 10 µM, time course
Protocol: Western blotting was performed following a method described previously. Briefly, 8 × 10^5 to 1 × 10^6 cells were seeded in petri dishes with 8 to 10 mL of culture medium and incubated overnight at 37 °C, 5% CO2. Then, the cells were treated with the test compounds and further incubated for the specified time point. Cells were then lysed using a lysis buffer containing protease inhibitors, and proteins were extracted by centrifugation. Protein concentrations were determined by using a Bio-Rad DC^TM protein assay kit (Bio-Rad Laboratories, Hercules, CA, USA). A total of 20–30 μg of proteins was loaded onto each well of 4–20% polyacrylamide gels for electrophoresis. Once electrophoresis was completed, gels were placed on pre-soaked polyvinylidene difluoride membranes and blocked with 10% skimmed milk in 1 × Tris-buffered saline and Tween (TBST). Then, the blots were incubated with primary antibodies, followed by washing with TBST for 4 × 20 min. After this, the blots were incubated with the appropriate horseradish peroxidase (HRP)-conjugated secondary antibody, followed by washing again with TBST for 4 × 20 min. The protein bands were then detected with either ECL prime (Amersham^TM ECL^TM prime Western blotting detection reagent) or ECL select (Amersham^TM ECL^TM select Western blotting detection reagent) depending on the abundance of the protein of interest. The blots were imaged using the Bio-Rad ChemiDoc^TM MP imaging system (Bio-Rad Laboratories, Hercules, CA, USA). All the primary and secondary antibodies used in this study were purchased from Cell Signaling Technology (Danvers, MA, USA).

[12] = system: HL-60 xenograft; experiment: In vivo anti-cancer efficacy, HL-60 xenograft; conditions: 200 mg/kg oral gavage once daily for 15 days
Protocol: An in vivo anti-cancer efficacy study was performed as reported previously. Briefly, female nude BALB/c mice (6–8 weeks of age) were engrafted with HL-60 human leukaemic cells subcutaneously into the rear flanks. Before inoculation, HL-60 (5 × 10^6) cells were cultured, harvested, and re-suspended in a 1:1 mixture of serum-free media and Matrigel (BD Biosciences, NSW, Australia). Mice with 100–200 mm^3 tumour size were allocated randomly into the control or treatment group. Rilpivirine and vehicle (0.5% HPMC) were administered by oral gavage daily. Mice were checked daily for any clinical signs of toxicity, including weight loss. Tumour volume was measured every other day and was calculated as length × width × height. At the end of the study period, or if clinical endpoints were reached as determined by a clinical record sheet score of 4, body condition score of 1, weight loss of ≥15%, or tumour growth of ≥2000 mm^3, the mouse was euthanised. Data analysis was performed using GraphPad Prism software version 7.02 (La Jolla, CA, USA).

[13] = target: Aurora A; set-up: method as in PMID 36297298; conditions: apparent Ki from IC50 and Km (ATP), cited from earlier work

T1 sequence (Q99683 whole entry): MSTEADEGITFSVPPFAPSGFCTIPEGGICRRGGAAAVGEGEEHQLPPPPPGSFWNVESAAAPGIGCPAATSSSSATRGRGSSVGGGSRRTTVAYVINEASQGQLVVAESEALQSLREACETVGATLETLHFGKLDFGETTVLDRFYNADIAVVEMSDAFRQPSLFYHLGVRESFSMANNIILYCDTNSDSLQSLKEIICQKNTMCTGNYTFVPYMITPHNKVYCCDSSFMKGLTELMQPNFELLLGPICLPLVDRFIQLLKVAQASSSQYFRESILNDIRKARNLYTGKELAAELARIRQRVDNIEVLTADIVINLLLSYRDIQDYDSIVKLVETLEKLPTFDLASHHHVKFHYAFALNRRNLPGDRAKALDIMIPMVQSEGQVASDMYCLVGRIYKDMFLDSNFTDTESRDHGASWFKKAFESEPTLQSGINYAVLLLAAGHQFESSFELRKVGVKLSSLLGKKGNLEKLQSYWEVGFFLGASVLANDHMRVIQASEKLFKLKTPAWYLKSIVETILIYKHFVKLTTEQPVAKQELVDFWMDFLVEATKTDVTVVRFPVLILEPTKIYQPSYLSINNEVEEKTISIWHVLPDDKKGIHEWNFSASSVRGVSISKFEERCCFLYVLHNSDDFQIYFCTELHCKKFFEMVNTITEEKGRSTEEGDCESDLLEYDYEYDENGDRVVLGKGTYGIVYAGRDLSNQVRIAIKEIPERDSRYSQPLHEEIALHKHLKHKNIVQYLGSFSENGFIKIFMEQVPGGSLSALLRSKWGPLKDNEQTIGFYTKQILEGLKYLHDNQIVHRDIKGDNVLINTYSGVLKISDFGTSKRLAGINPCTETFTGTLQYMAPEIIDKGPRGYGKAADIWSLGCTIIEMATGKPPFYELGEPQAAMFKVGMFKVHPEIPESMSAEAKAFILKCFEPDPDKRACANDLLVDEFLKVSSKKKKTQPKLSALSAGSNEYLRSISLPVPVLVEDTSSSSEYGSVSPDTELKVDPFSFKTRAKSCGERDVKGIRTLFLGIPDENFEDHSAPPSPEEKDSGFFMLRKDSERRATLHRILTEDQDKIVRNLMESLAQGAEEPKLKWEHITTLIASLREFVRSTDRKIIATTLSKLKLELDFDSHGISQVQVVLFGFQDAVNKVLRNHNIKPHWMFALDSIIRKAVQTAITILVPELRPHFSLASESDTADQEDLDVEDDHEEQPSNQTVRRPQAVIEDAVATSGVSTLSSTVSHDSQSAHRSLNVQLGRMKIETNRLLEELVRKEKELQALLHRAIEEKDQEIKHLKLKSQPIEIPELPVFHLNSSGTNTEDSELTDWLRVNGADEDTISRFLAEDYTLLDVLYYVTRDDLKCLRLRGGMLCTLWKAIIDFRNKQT
T3 sequence (Q02156 whole entry): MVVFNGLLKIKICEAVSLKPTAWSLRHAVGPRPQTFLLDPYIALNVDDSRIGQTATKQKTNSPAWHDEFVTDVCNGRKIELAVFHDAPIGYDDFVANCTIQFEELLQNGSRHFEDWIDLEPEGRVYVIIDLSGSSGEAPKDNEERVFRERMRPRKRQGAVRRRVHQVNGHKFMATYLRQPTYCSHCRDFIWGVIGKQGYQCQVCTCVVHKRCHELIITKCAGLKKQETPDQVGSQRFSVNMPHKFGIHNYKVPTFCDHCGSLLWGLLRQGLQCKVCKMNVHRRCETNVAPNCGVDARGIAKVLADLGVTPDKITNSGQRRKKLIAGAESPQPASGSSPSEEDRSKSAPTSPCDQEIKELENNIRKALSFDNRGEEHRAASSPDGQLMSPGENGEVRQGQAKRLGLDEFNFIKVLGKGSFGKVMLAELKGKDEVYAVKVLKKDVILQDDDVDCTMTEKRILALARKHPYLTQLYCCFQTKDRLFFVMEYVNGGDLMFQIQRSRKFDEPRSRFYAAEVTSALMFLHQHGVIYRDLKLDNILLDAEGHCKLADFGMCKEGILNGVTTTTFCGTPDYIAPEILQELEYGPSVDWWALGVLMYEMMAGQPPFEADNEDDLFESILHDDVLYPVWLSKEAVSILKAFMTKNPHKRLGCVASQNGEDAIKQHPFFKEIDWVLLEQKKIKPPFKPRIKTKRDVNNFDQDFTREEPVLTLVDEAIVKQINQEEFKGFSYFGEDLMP
T4 sequence (Q02763 23-1124 Y897S): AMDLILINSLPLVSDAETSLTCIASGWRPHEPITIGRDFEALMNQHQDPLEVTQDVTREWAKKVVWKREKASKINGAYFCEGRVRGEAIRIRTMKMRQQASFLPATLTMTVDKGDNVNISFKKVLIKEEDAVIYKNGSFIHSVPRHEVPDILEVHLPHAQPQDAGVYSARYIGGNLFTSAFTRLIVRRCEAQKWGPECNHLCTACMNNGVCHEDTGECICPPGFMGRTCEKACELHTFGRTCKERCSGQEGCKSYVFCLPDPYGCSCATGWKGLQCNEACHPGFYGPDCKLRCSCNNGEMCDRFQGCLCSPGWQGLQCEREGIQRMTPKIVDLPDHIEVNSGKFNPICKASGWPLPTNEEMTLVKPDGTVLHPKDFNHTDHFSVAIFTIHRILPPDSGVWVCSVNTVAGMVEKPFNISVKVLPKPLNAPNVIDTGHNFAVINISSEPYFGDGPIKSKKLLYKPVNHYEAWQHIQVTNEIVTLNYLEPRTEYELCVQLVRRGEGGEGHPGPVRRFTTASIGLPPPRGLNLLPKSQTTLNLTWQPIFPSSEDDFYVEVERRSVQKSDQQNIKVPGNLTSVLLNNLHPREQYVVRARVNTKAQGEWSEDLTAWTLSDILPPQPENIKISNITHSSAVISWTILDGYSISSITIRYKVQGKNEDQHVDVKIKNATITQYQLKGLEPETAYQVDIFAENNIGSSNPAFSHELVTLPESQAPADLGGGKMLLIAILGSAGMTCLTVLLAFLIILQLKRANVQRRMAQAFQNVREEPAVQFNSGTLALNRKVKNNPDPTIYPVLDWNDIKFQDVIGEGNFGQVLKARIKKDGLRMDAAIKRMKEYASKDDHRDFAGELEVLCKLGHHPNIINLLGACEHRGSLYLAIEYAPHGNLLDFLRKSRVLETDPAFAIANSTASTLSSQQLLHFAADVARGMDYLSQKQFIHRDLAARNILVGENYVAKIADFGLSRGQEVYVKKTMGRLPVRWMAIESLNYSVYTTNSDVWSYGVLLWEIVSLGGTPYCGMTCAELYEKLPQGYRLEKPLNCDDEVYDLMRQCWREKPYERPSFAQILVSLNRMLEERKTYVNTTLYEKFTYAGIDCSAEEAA
T2 sequence (Q8IU85 whole entry): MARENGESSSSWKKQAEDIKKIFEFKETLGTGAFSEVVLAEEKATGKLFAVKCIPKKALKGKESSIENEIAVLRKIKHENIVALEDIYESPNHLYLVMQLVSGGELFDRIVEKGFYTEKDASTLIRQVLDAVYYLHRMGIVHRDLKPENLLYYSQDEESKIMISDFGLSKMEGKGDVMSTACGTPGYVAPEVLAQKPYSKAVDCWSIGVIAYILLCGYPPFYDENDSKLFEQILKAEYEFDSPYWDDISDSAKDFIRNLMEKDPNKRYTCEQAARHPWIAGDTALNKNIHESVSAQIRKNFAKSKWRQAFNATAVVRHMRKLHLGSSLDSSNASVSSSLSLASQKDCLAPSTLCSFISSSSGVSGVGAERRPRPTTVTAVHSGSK

## Cc1cc(/C=C/C#N)cc(C)c1Nc1ccnc(Nc2ccc(C#N)cc2)n1 [rilpivirine, (E)-4-((4-((4-(2-cyanoethenyl)-2,6-dimethylphenyl)amino)pyrimidin-2-yl)amino)benzonitrile]
[1]
  remaining activity at 1 µM: 92%
[2]
  remaining activity at 1 µM: 100%
[3]
  remaining activity at 1 µM: 89%
[4]
  remaining activity at 1 µM: 96%
[5]; HL-60, 24 h
  GI50: 9.16 ± 1.05 µM
[5]; HL-60, 48 h
  GI50: 6.26 ± 0.15 µM
[5]; HL-60, 72 h
  GI50: 4.12 ± 0.18 µM
[6]; 5 µM
  apoptotic cells (early and late apoptosis): 6.94%
[6]; 10 µM
  apoptotic cells (early and late apoptosis): 48.73%
[6]; 20 µM
  apoptotic cells (early and late apoptosis): 67.32%
[7]; 5 µM
  apoptotic cells (early and late apoptosis): 15.06%
[7]; 10 µM
  apoptotic cells (early and late apoptosis): 31.88%
[7]; 20 µM
  apoptotic cells (early and late apoptosis): 38.21%
[8]
  apoptosis induction: induced significant apoptosis
[9]; 5 µM
  apoptotic cells (early and late apoptosis): 31.62%
[9]; 10 µM
  apoptotic cells (early and late apoptosis): 87.04%
[9]; 20 µM
  apoptotic cells (early and late apoptosis): 98.9%
[10]; 5 µM
  apoptotic cells (early and late apoptosis): 20.68%
[10]; 10 µM
  apoptotic cells (early and late apoptosis): 29.58%
[10]; 20 µM
  apoptotic cells (early and late apoptosis): 39.47%
[11]
  time from which PARP cleavage was detected: ≥ 12 h
  time of maximum induction of phospho-Histone H3 (Ser10): 18 h
  time until inhibition of Aurora-A autophosphorylation was evident: ≤ 6 h
[12]
  day from which reduction in tumour growth was statistically significant (p < 0.001): ≥ 11 days
  signs of toxicity or weight loss during treatment: did not cause any apparent signs of toxicity or weight loss
  tumour growth compared with vehicle-treated group: noticeable delay in tumour growth
[13]
  Ki: ~0.116 µM
[13]; listed as Rilpivirine
  Ki: 0.12 µM
